Key:
Assay type in all cases: cell-based, human
(yCD-NSCs) = assay: Response of yCD-NSCs to 5-FU; conditions: ACTB (yCD-NSCs)
glioma cell line U87 = assay: Antitumor effect in co-culture with 5-FC (CCK-8), U87; conditions: without TSC1/TSC2
Method: (§1) Glioma cell line U87 (1×10^4 cells) or glioma stem cell line hG008 (1×10^4 cells) and TSC1 or TSC2 (5×10^3 cells) were co-cultured for 1 day using a low adhesive 96-well culture plate (Prime Surface 96V, manufactured by Sumitomo Bakelite Co., Ltd.), then 5-FC (2 μg/ml) was added, and cell deaths were assessed using a cell proliferation/cytotoxicity assay kit Cell Counting Kit-8 (CCK-8) 5 days later.

[1] = test system: glioma stem cell line hG008; assay: Antitumor effect in co-culture with 5-FC (CCK-8), hG008; conditions: without TSC1/TSC2
Method: as §1

response to 5-FU ((yCD-NSCs))	Compound	tumor cell death with 5-FC alone (glioma cell line U87)	tumor cell death with 5-FC alone [1]
not favorable	O=c1[nH]cc(F)c(=O)[nH]1 [5-FU, 5-fluorouracil]	–	–
–	Nc1nc(=O)[nH]cc1F [5-FC, 5-fluorocytosine]	no particular tumor cell death was observed	no particular tumor cell death was observed

Source: patent US20240226175A1, “THERAPEUTIC AGENT USING GENOME-EDITED PLURIPOTENT STEM CELL” (KEIO UNIVERSITY, priority 2020, published 2024)
